Test results: patent US20220395500A1, “SMALL MOLECULE ACTIVATORS OF INTERFERON REGULATORY FACTOR 3 AND METHODS OF USE THEREOF” (Neuralexo, Inc., priority 2020, published 2022)
Where two headings read alike, the source gives them in different places.

Experiments:
[1] = tested on: IRF-Lucia luciferase reporter (ISRE) in J774-Dual cells; assay: J774-Dual IRF-Lucia luciferase reporter assay (ISRE activation); format: cell-based, mouse; details: for EC50: read-out: J774 IRF EC50
Outline: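 Mouse J774-Dual macrophages, seeded in growth medium 24 h at 37 °C, 5% CO2 before treatment; secreted IRF-Lucia (ISRE-driven) and NF-κB-SEAP read with QUANTI-Luc and QUANTI-Blue. EC50 and CC50 from 8-point dose-response, cytotoxicity by CellTiter-Glo; ISRE:NF-κB ratio calculated.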

[2] = tested on: NF-κB-SEAP reporter in THP1-Dual cells; assay: THP1-Dual NF-κB-SEAP reporter counterscreen; format: cell-based, human; details: read-out: THP1 NFkB EC50
Outline: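 THP1-Dual cells differentiated 48 h with 5 ng/mL PMA, washed, then treated 24 h with compounds at 10 μM final; LPS 313 ng/mL as control. Supernatant read for Lucia luciferase (ISRE) by QUANTI-Luc luminescence and for NF-κB-SEAP by QUANTI-Blue absorbance at 630 nm after 1 h at 37° C.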

[3] = tested on: NF-κB-SEAP reporter in J774-Dual cells; assay: J774-Dual NF-κB-SEAP reporter assay; format: cell-based, mouse; details: read-out: J774 NFkB EC50
Method: First, optimal assay conditions and assay quality in 384-well format were determined. As mentioned, the mouse macrophage J774 cell line (J774-Dual, InvivoGen) stably transfected with the same inducible reporters described above (e.g., IRF-Lucia luciferase and NF-κB-SEAP) was used. The responsiveness of the J774-Dual cell line was investigated in an array of assay conditions to obtain sensitive and reproducible results for the activation of the IRF and NF-κB reporters. An optimal plating density and conditions for these cells was established for these cells in a 384-well format. Assay work-flow is similar to that discussed above for the THP1-Dual assay without a need for cell differentiation. Thus, cells are seeded directly in growth medium and incubated at 37° C. in a 5% C02 incubator for 24 hours prior to the programmed treatments being added as described herein.
The primary high throughput screen used the HTS platform of human THP1 monocyte cells containing the IRF-Lucia luciferase and NFκB-SEAP (secreted embryonic alkaline phosphatase) dual reporter (THP1-Dual, Invivogen), enabling the simultaneous study of the IRF and NFκB signaling pathways respectively. As discussed, the Lucia luciferase reporter gene is under the control of an ISG54 (interferon-stimulated gene) minimal promoter in conjunction with five interferon-stimulated response elements (ISRE). The SEAP gene is driven by an IFNβ minimal promoter fused to five copies of the NFκB consensus transcriptional response element and three copies of the c-Rel binding site. Both IRF-Lucia luciferase and NFκB-SEAP reporter proteins are secreted and readily measurable in the cell culture supernatant when using QUANTI-Luc™ and QUANTI-Blue™ detection reagents, respectively. Identified “hits” were confirmed in a secondary screen with an 8-point dose response curve. Hits were further screened for activity in the mouse using the mouse J774 macrophage-like cell line containing the identical reporter constructs (J774-Dual, Invivogen).
The OTRADI Small Molecule Library of approximately 246,000 diverse compounds (see below for description) was screened using the THP1-Dual based HTS platform described above. All transfer steps in the screen are fully automated, thus reducing variability. Primary screening included a single data point or dose for each molecule. After data normalization was applied for each assay run, “hit” selection was performed on the plates that pass the quality control (QC) criterion. Hits were defined as samples having values above the activity cutoff determined based on noise level of the assay to reduce false positive rates. In the pilot study discussed above this activity value was >3σ above the ISRE mean with the added criteria of NFκB activation being lower than […] from the mean to identify IRF selective compounds. The ratio of ISRE:NFκB activity was also calculated as a selectivity index for prioritizing hit selection. Primary hits underwent secondary screening to determine the 50% effective concentration (EC50) and 50% cytotoxic concentration (CC50) of these agents using an 8-point dose-response curve in the human THP1-Dual cells. Cytotoxicity was measured in the plate using Cell Titer Glo (Promega). Identified candidate compounds were further screened (orthogonal screen) for cross species activity in the validated mouse J774-Dual assay using an 8-point dose-response format to determine EC50 and CC50 values as well as ISRE:NFκB ratios. A general process flow for the experimental design laid out above is depicted at FIG. 12.

[4] = Mus musculus, J774, Mouse Reporter Cell Line, 8-point dose response
[5] = Homo sapiens, THP1-Dual, Human Reporter Cell Line, 8-point dose response
[6] = Mouse Reporter Cell Line J774, at peak
[7] = Mus musculus, J774, Mouse Reporter Cell Line J774
[8] = Homo sapiens, THP1-Dual, Human Reporter Cell Line THP1

| EC50 [1, 4] [µM] | EC50 [3, 4] [µM] | EC50 [1, 7] [µM] | EC50 [3, 7] [µM] | EC50 ([1]; Mouse Reporter Cell Line J774) [µM] | EC50 ([3]; Mouse Reporter Cell Line J774) [µM] | SMILES | J774 IRF % activation at peak ([1]; Mouse Reporter Cell Line) [%] | EC50 [2, 5] [µM] | J774 IRF % activation at peak [1, 6] [%] | EC50 [2, 8] [µM] | EC50 ([2]; Human Reporter Cell Line THP1) [µM] |
| --- | --- | --- | --- | --- | --- | --- | --- | --- | --- | --- | --- |
|  |  |  |  | 7.67 | 12 | COc1ccc(C(=O)Nc2cc(-c3nc4ccccc4s3)ccc2C)cc1[N+](=O)[O-] [ND-38] |  |  | 114 |  | ~3.12 |
|  |  | 4.1 | 3.01 |  |  | COCOc1ccc2oc(-c3ccc(C)c(NC(=O)c4ccc(OC)c([N+](=O)[O-])c4)c3)nc2c1 [ND-95, 4-methoxy-N-(5-(5-(methoxymethoxy)benzo[d]oxazol-2-yl)-2-methylphenyl)-3-nitrobenzamide] |  |  | 98.11 | 1.27 |  |
|  |  | 8.82 | 8.75 |  |  | COc1ccc(C(=O)Nc2nc(-c3cc4ccccc4oc3=O)cs2)cc1 [ND-1] |  |  | 28.40 | ~12.7 |  |
|  |  | 4.81 | 11.4 |  |  | COc1ccc(C(=O)Nc2cc(-c3nc4cc(C(C)C)ccc4o3)ccc2C)cc1[N+](=O)[O-] [ND-2] |  |  | 141.80 | 4.47 |  |

Continued, molecule first:

| SMILES | EC50 [1, 4] [µM] | EC50 [3, 4] [µM] | EC50 [1, 7] [µM] | EC50 [3, 7] [µM] | EC50 ([1]; Mouse Reporter Cell Line J774) [µM] | EC50 ([3]; Mouse Reporter Cell Line J774) [µM] | J774 IRF % activation at peak ([1]; Mouse Reporter Cell Line) [%] | EC50 [2, 5] [µM] | J774 IRF % activation at peak [1, 6] [%] | EC50 [2, 8] [µM] | EC50 ([2]; Human Reporter Cell Line THP1) [µM] |
| --- | --- | --- | --- | --- | --- | --- | --- | --- | --- | --- | --- |
| CCOc1cccc(COc2ccc(C(=O)Nc3ccc(N4CCN(C(=O)c5cccs5)CC4)cc3)cc2)c1 [NA42, 4-((3-ethoxybenzyl)oxy)-N-(4-(4-(thiophene-2-carbonyl)piperazin-1-yl)phenyl)benzamide] | 3.9 | 5.36 |  |  |  |  | 191.2 | 3.04 |  |  |  |
| COc1ccc(C(=O)Nc2cc(-c3nc4cc(C)c(C)cc4o3)ccc2C)cc1[N+](=O)[O-] [ND13, N-(5-(5,6-dimethylbenzo[d]oxazol-2-yl)-2-methylphenyl)-4-methoxy-3-nitrobenzamide] |  |  | 0.956 | 1.32 |  |  |  |  | 220.5 | 0.556 |  |
| O=C(Nc1ccc(N2CCN(C(=O)c3cccs3)CC2)cc1)c1ccc(OCc2ccccc2)nc1 [NA-59] | 3.09 | 4.37 |  |  |  |  | 150.5 | ~2.57 |  |  |  |
| Cc1ccc(NC(=O)c2cc(NC(=O)c3ccccc3)ccc2N2CCOCC2)cc1Cl [NB-1] |  |  | 6.57 | 19.9 |  |  |  |  | 54.52 | 2.54 |  |
| COc1ccc(C(=O)Nc2ccc(OCc3ccccc3)cc2)cc1[N+](=O)[O-] [NA-44] | 7.38 | 7.65 |  |  |  |  | 2.085 | 0.92 |  |  |  |
| O=C(Nc1ccc(N2CCN(C(=O)c3cccs3)CC2)cc1)c1cccc2c(Br)cccc12 [NA-21, 5-bromo-N-{4-[4-(2-thienylcarbonyl)-1-piperazinyl]phenyl}-1-naphthamide] | 1.01 | 1.05 |  |  |  |  | 38.86 | 1.08 |  |  |  |
| O=C(Nc1ccc(N2CCN(C(=O)c3cccs3)CC2)cc1)c1ccc(OCc2cccc(Cl)c2)cc1 [NA-33] | 2.64 | 3.81 |  |  |  |  | 15.46 | 1.62 |  |  |  |
| Cc1ccc(NC(=O)c2cc(NC(=O)c3cccs3)ccc2N2CCOCC2)cc1Br [NB-23] |  |  | 6.56 | 9.53 |  |  |  |  | 72.79 | 4.59 |  |
| O=C(Nc1ccc(N2CCN(C(=O)c3cccs3)CC2)cc1)c1sc2cc(Cl)ccc2c1Cl [NA-20] | 4.19 | ~4.75 |  |  |  |  | 29.98 | 2.76 |  |  |  |
| Cc1ccc(NC(=O)c2cc(NC(=O)c3cccs3)ccc2N2CCOCC2)cc1 [NB-17] |  |  | 8.68 | 8.79 |  |  |  |  | 16.67 | ~3.14 |  |
| O=C(Nc1ccc(N2CCN(C(=O)c3cccs3)CC2)cc1)c1ccc(Cl)c2ccccc12 [NA13] | 0.821 | ~2.86 |  |  |  |  | 3.434 | 1.22 |  |  |  |
